Reference: patent US8404646B2, “Methods for preventing or treating mitochondrial permeability transition” (Cornell Research Foundation, Inc., priority 2003, dated 2013)
Non-standard residues stand in square brackets, D forms with d. Residues, ends and D or L forms follow the SMILES beside them. *: point of attachment. Dansyl = CN(C)c1cccc2c(S(=O)(=O)*)cccc12; Dmt = Cc1cc(O)cc(C)c1C[C@H](N)C(=O)O; Dap = NC[C@H](N)C(=O)O

How the values were obtained:
[1] = Body weight and heart rate during the infarction/reperfusion experiment; format: in vivo, rat
Experimental: Adult male […] rats (F344 strain, National Institute of Aging, maintained by Harian Sprague-Dawley Inc.), weighting between 285 and 425 gm, were used. Twenty-four rats (n=8/group) were randomly assigned to one of three groups: (1) Control group was given 0.4 ml of saline as an intra-peritoneal (IP) injection 30 minutes before the ligation of left anterior descending coronary artery, followed by same IP dose injection 5 minutes before reperfusion; (2) SS-31 group was treated with SS-31 (3 mg/kg dissolved in 0.4 ml of saline) as an IP injection 30 minutes before the ligation followed by same IP dose injection as maintenance 5 minutes before reperfusion; and (3) SS-20 group was treated with SS-20 (3 mg/kg dissolved in 0.4 ml of saline) as an IP injection 30 minutes before the ligation followed by same dose IP injection as maintenance just 5 minutes before reperfusion. Also, Sham-operated rats (n=3) were used to account for possible effects related to the surgical protocol. All procedures were performed in a blinded manner, with the groups assigned letters and their identities unknown to the operators. Likewise, the two independent investigators analyzing the data were blind to the treatment assignments.
After anesthesia with ketamine (90 mg/kg IP) and xylazine (4 mg/kg IP), a tracheotomy was performed, and the rat was intubated with polyethylene tube and ventilated (Harvard Rodent Ventilator model 683) with room air and a tidal volume of 0.65 ml/100 gm of body weight at 90 breaths per minute. Body temperature was maintained at 37° C. by using a heated operating table. The internal jugular vein was surgically exposed and a polyethylene tube was inserted for Evans blue dye solution injection. Peripheral limb electrodes were inserted subcutaneously and electrocardiogram was monitored throughout the procedure.
An ECG was recorded continuously from a standard lead II (AC AMP 700) inserted into the limbs of all rats. The ECG was printed at 25 mm/second. The cardiac arrhythmias were monitored and assessed in accordance with the Lambeth Convention. The assessment was performed in a blinded manner using the original paper recordings. A validated score was used to quantify the severity of cardiac arrhythmias. The score consisted of six types: 0, no ventricular extrasystoles (VES), ventricular tachycardia (VT) or ventricular fibrillation (VF); 1=VES; 2=one to five episodes of VT (more than four coupled VES); 3=more than five episodes of VT and/or one VF; 4=two to five episodes of VF; 5=more than five episodes of VF.
All values are expressed as mean±standard error of mean (S.E.M.). Statistical analyses were performed using SPSS version 10. Differences among groups in body weight, heart rate, arrhythmia, area at risk as a percentage of the left ventricle, and area of infarction as a percentage of the area at risk were analyzed using ANOVA. If significant differences were detected, comparisons between the control group and the 2 treatment groups were conducted using the Mann-Whitney U-test. A two-tailed p<0.05 was regarded as significant.

Caco-2 cells = test: Confocal laser scanning microscopy of fluorescent analogs (uptake, subcellular distribution); format: cell-based, human; settings: for subcellular distribution of fluorescence: Caco-2, CLSM
Experimental: The uptake of [Dmt^1]DALDA into Caco-2 cells was confirmed by confocal laser scanning microscopy (CLSM) using a fluorescent analog of [Dmt^1]DALDA (Dmt-D-Arg-Phe-dnsDap-NH2; where dnsDap=β-dansyl-1-α,β-diaminopropionic acid). Cells were grown as described above and were plated on (35 mm) glass bottom dishes (MatTek Corp., Ashland, Mass.) for 2 days. The medium was then removed and cells were incubated with 1 ml of HBSS containing 0.1 μM to 1.0 μM of the fluorescent peptide analog at 37° C. for 1 h. Cells were then washed three times with ice-cold HBSS and covered with 200 μl of PBS, and microscopy was performed within 10 min at room temperature using a Nikon confocal laser scanning microscope with a C-Apochromat 63×/1.2 W corr objective. Excitation was performed at 340 nm by means of a UV laser, and emission was measured at 520 nm. For optical sectioning in z-direction, 5-10 frames with 2.0 μm were made.
To examine the subcellular distribution of [Dmt^1]DALDA, the fluorescent analog, [Dmt^1, AtnDap^4]DALDA (Dmt-D-Arg-Phe-atnDap-NH2; where atn=β-anthraniloyl-1-α,β-diamino-propionic acid), was prepared. The analog contained β-anthraniloyl-1-α,β-diaminopropionic acid in place of the lysine reside at position 4. The cells were grown as described in Example 1 and were plated on (35 mm) glass bottom dishes (MatTek Corp., Ashland, Mass.) for 2 days. The medium was then removed and cells were incubated with 1 ml of HBSS containing 0.1 μM of [Dmt^1, AtnDap^4]DALDA at 37° C. for 15 min to 1 h.
Cells were also incubated with tetramethylrhodamine methyl ester (TMRM, 25 nM), a dye for staining mitochondria, for 15 min at 37° C. Cells were then washed three times with ice-cold HBSS and covered with 200 μl of PBS, and microscopy was performed within 10 min at room temperature using a Nikon confocal laser scanning microscope with a C-Apochromat 63×/1.2 W corr objective.
For [Dmt^1, AtnDap^4]DALDA, excitation was performed at 350 nm by means of a UV laser, and emission was measured at 520 nm. For TMRM, excitation was performed at 536 nm, and emission was measured at 560 nm.

[2] = test system: isolated mouse liver mitochondria; test: Uptake into isolated mitochondria (fluorescence quenching, radioactivity in pellet); format: in vitro ADME
Experimental: (FIG. 1A) Mitochondrial uptake of SS-19 was determined using fluorescence spectrophotometry (ex/em=320/420 nm). […] Pretreatment of mitochondria with FCCP (1.5 μM) reduced quenching by <20% (black line). […] Uptake was stopped by centrifugation (16000×g) for 5 min at 4° C., and radioactivity determined in the pellet. […] Data are shown as mean±s.e.; n=3. *, P<0.05 by Student's t-test. […] Black line, TMRM; red line, SS-19.
To isolate mitochondria from mouse liver, mice were sacrificed by decapitation. The liver was removed and rapidly placed into chilled liver homogenization medium. The liver was finely minced using scissors and then homogenized by hand using a glass homogenizer.
The homogenate was centrifuged for 10 min at 1000×g at 4° C. The supernatant was aspirated and transferred to polycarbonate tubes and centrifuged again for 10 min. at 3000×g, 4° C. The resulting supernatant was removed, and the fatty lipids on the side-wall of the tube were carefully wiped off.
The pellet was resuspended in liver homogenate medium and the homogenization repeated twice. The final purified mitochondrial pellet was resuspended in medium. Protein concentration in the mitochondrial preparation was determined by the Bradford procedure.
Approximately 1.5 mg mitochondria in 400 μl buffer was incubated with [^3H][Dmt^1]DALDA for 5-30 min at 37° C. The mitochondria were then centrifuged down and the amount of radioactivity determined in the mitochondrial fraction and buffer fraction. […] Thus [Dmt^1]DALDA is concentrated in mitochondria.
Thus uptake of [Dmt^1, AtnDap^4]DALDA was not potential-dependent.
To confirm that the mitochondrial targeting was not an artifact of the fluorophore, we also examined mitochondrial uptake of [^3H][Dmt^1]DALDA. Isolated mitochondria were incubated with [^3H][Dmt^1]DALDA and radioactivity determined in the mitochondrial pellet and supernatant.
We next examined the effect of mitochondrial swelling on the accumulation of [Dmt^1, AtnDap^4]DALDA in mitochondria by using alamethicin to induce swelling and rupture of the outer membrane. […] Thus, [Dmt^1]DALDA is associated with mitochondrial membranes.

Q: Which “Heart Rate Baseline” value ([1]; Baseline) does the source give for `N=C(N)NCCC[C@@H](NC(=O)[C@@H](N)Cc1ccccc1)C(=O)N[C@@H](Cc1ccccc1)C(=O)N[C@@H](CCCCN)C(N)=O` [SS-20, Phe-D-Arg-Phe-Lys-NH2] (H-F[dR]FK-NH2; N-terminus assumed) here?
A: 255 ± 5

Q: And the “Heart Rate Ischemia” value ([1]; first column)?
A: 191 ± 17

Q: And the “Heart Rate Ischemia” value ([1]; second column)?
A: 184 ± 15

Q: What about the “Heart Rate Open chest” value ([1]; Open chest) of the same molecule?
A: 211 ± 10

Q: What about the “Heart Rate Reperfusion” value ([1]; first column) of the same molecule?
A: 182 ± 16

Q: What about the “Heart Rate Reperfusion” value ([1]; second column) of the same molecule?
A: 183 ± 12

Q: For `Cc1cc(O)cc(C)c1C[C@H](N)C(=O)N[C@H](CCCNC(=N)N)C(=O)N[C@@H](Cc1ccccc1)C(=O)N[C@@H](CNS(=O)(=O)c1cccc2c(N(C)C)cccc12)C(N)=O` [[Dmt^1,DnsDap^4]DALDA, Dmt-D-Arg-Phe-dnsDap-NH2] (H-[Dmt][dR]F[Dap](Dansyl)-NH2; N-terminus assumed), which “uptake of fluorescent peptide into Caco-2 cells (CLSM)” value (Caco-2 cells; 0.1 μM, 1 h, 37° C.) is on record?
A: confirmed the uptake

Q: And the “subcellular distribution of fluorescence” value (Caco-2 cells)?
A: diffuse throughout the cytoplasm but was completely excluded from the nucleus

Q: For Dmt-D-Arg-Phe-atnDap-NH2 [SS-19], which “incubation time after which uptake into Caco-2 cells was shown” value (Caco-2 cells; 0.1 μM, 37° C.) is on record?
A: 15 min

Q: And the “subcellular distribution of fluorescence” value (Caco-2 cells)?
A: completely excluded from the nucleus

Q: What about the “distribution to mitochondria (overlap with TMRM)” value (Caco-2 cells; Caco-2, TMRM 25 nM) of the same molecule?
A: demonstrated by the overlap

Q: And the “reduction of uptake (fluorescence quenching) by FCCP pretreatment” value ([2]; FCCP 1.5 μM, mitochondria 0.35 mg/ml)?
A: < 20%

Q: What about the “effect of alamethicin-induced mitochondrial swelling on uptake” value [2] of the same molecule?
A: retained to a large extent

Q: And the “effect of alamethicin-induced mitochondrial swelling on uptake” value ([2]; listed as [Dmt^1, AtnDap^4]DALDA)?
A: only partially reversed

Q: What about the “uptake on addition of mitochondria (fluorescence)” value ([2]; ex/em 320/420 nm) of the same molecule?
A: immediate quenching
